The IC50 is the concentration that inhibits the measured activity by half.

Consider 44 compounds from ChEMBL document CHEMBL1124755, “Role of hydrogen bonding in ligand interaction with the N-methyl-D-aspartate receptor ion channel” (J Med Chem, 1990).

The first experiment addresses Glutamate NMDA receptor. In words: Evaluated for its affinity to bind PCP N-methyl-D-aspartate (NMDA) glutamate receptor in rat brain membrane using [3H]MK-801 as radioligand. Format: cell membranes.
Turning to `C[C@@]12Cc3cc(Br)ccc3C[C@@H](N1)c1ccccc12` (racemic), the half-maximal inhibitory concentration (IC50) is 79 nM. `CC[C@@]12Cc3ccccc3C[C@@H](N1)c1ccccc12` (racemic) came in with a concentration for half-maximal inhibition (IC50) of 1360 nM.

In the case of `C[C@@]12Cc3ccccc3C[C@@H](N1)c1cc(Cl)ccc12` (racemic), the concentration for half-maximal inhibition (IC50) was determined as 250 nM. Compound `C[C@]12Cc3ccccc3C[C@H](c3ccccc31)N2Cc1ccccc1` (racemic) had a concentration for half-maximal inhibition (IC50) of 23000 nM. `C[C@]12N[C@H](Cc3ccccc31)Cc1ccccc12` had a concentration for half-maximal inhibition (IC50) of 140 nM. For `CC1c2ccccc2C[C@H]2N[C@]1(C)c1ccccc12` (mixture of isomers), the IC50 came to 590 nM. The compound `C[C@]12N[C@H](Cc3cc4ccccc4cc31)c1ccccc12` (racemic) displayed an IC50 of 89000 nM. Same read-out and setting: next, `C[C@@]12N[C@@H](c3ccccc31)[C@H](O)c1ccccc12` (racemic): 640 nM. The same measure, in the same setting: the value for `C[C@]12Cc3ccccc3C[C@](O)(N1)c1ccccc12` (racemic) was 104 nM.

`CCCC[C@@]12Cc3ccccc3C[C@@](C)(N1)c1ccccc12` (racemic) displayed an IC50 of 3600 nM. For `C[C@]12Cc3ccccc3C[C@](C)(N1)c1ccccc12`, the IC50 worked out at 30 nM. As for `C[C@@]12Cc3ccc(Br)cc3C[C@@H](N1)c1ccccc12` (racemic), the IC50 came to 320 nM. For `C[C@]12N[C@H](Cc3c1ccc1ccccc31)c1ccccc12` (racemic), the half-maximal inhibitory concentration (IC50) was 5800 nM. `C[C@]12Cc3ccccc3C[C@H](c3ccccc31)[N+]2(C)C` (racemic) came in with a concentration for half-maximal inhibition (IC50) of 7100 nM. The compound `C[C@]12N[C@](C)(Cc3ccccc31)c1ccccc12` (racemic) had a half-inhibitory concentration (IC50) of 35 nM. On the same count and under the same terms, the value for `Cc1cccc2c1C[C@H]1N[C@]2(C)c2ccccc21` (racemic) was 800 nM. In turn, `Cc1ccc2c(c1)[C@]1(C)N[C@H](C2)c2ccccc21` (racemic) showed an IC50 of 32 nM. Turning to `C[C@@]12Cc3ccccc3C[C@@H](N1)c1cc(Br)ccc12` (racemic), the IC50 is 270 nM.

Regarding `C[C@@]12Cc3ccccc3C[C@@H](N1)c1ccccc12` (racemic), the IC50 turned out to be 86 nM.

In turn, `CC12Cc3ccccc3[C@H](Cc3ccccc31)N2` (mixture of isomers) showed an IC50 of 690 nM. Compound `C[C@@]12Cc3ccccc3C[C@@H](N1)c1ccc(Br)cc12` (racemic) yielded a 50% inhibitory concentration (IC50) of 140 nM. Consider `C[C@]12N[C@H](Cc3ccccc31)c1c2ccc2ccccc12` (racemic), for which the IC50 came out at 2300 nM. On the same count and under the same terms, the value for `Cc1cccc2c1[C@H]1Cc3ccccc3[C@]2(C)N1` (racemic) was 3000 nM; that for `C[C@@]12Cc3ccccc3C[C@@H](N1)c1c(Cl)cccc12` (racemic) was 1370 nM.

Compound `c1ccc2c(c1)C[C@@H]1N[C@H](C2)c2ccccc21` had a half-maximal inhibitory concentration (IC50) of 640 nM. Still for that read-out and setting: the value for `COc1ccc2c(c1)C[C@H]1N[C@@](C)(C2)c2ccccc21` (racemic) was 220 nM. On the same count and under the same terms, next, `C[C@@]12Cc3ccc(Cl)cc3C[C@@H](N1)c1ccccc12` (racemic): 190 nM; `CCN1[C@@H]2Cc3ccccc3C[C@@]1(C)c1ccccc12` (racemic): 2510 nM. For the compound `C[C@@]12Cc3ccccc3C[C@@H](N1)c1ccccc12` (stereo in doubt; (-)-15), the IC50 was determined as 106 nM. Same read-out and setting: the value for `C[C@]12Cc3ccccc3[C@@H]3[C@H](c4ccccc41)N32` (mixture of isomers) was more than 100000 nM; that for `CN1[C@@H]2Cc3ccccc3C[C@@]1(C)c1ccccc12` (racemic) was 530 nM.

Turning to `C[C@]12N[C@](C)(c3ccccc31)c1ccccc12`, the IC50 is 24 nM. `C[C@@]12Cc3ccccc3C[C@@H](N1)c1ccccc12` (stereo in doubt; (+)-15) returned a half-inhibitory concentration (IC50) of 104 nM. The same measure, in the same setting: next, `C[C@@]12Cc3ccc(O)cc3C[C@@H](N1)c1ccccc12` (racemic): 140 nM; `Cc1ccc2c(c1)C[C@H]1N[C@]2(C)c2ccccc21` (racemic): 640 nM. Consider `Cc1ccc2c(c1)[C@H]1Cc3ccccc3[C@]2(C)N1` (racemic), for which the IC50 amounted to 440 nM. The compound `C[C@@]12Cc3ccccc3[C@@H](C=N1)c1ccccc12` (racemic) gave a concentration for half-maximal inhibition (IC50) of more than 100000 nM. Turning to `C[C@]12N[C@H](Cc3ccccc31)c1cc3ccccc3cc12` (racemic), the IC50 is 86000 nM. Consider `CC12Cc3ccccc3[C@@H](N1)c1ccccc12` (mixture of isomers), for which the IC50 stood at 260 nM. The compound `Cc1ccc2c(c1)[C@@]1(C)N[C@@H]2Cc2ccccc21` (racemic) gave an IC50 of 100 nM.

The next experiment deals with Glutamate NMDA receptor. The experiment can be described thus: Evaluated for its affinity to bind ion channel binding sites (phencyclidine or PCP receptor) on the N-methyl-D-aspartate glutamate receptor in rat brain membrane using [3H]MK-801 as radioligand. Type of experiment: cell membranes.
`C[C@@]12Cc3ccccc3C(CN1)[C@@H](O)c1ccccc12` (mixture of isomers) came in with an IC50 of 8100 nM. `C[C@@]12N[C@@](C)(c3ccccc31)C(O)c1ccccc12` (mixture of isomers; 14) showed an IC50 of 6600 nM. On the same count and under the same terms, next, `CC12Cc3ccccc3[C@@H](O)C(CN1)c1ccccc12` (mixture of isomers): 950 nM. Still for that read-out and setting: the value for `C[C@@]12N[C@@](C)(c3ccccc31)C(O)c1ccccc12` (mixture of isomers; 13) was 65 nM.
